Where “and” joins values, the source holds several entries; their conditions need not be identical. Equal values may be shown once.
Legend:
[1] = biological target: Glycogen synthase kinase-3 alpha (Homo sapiens, UniProt P49840); assay: TR-FRET Assay
Summary of the method: (§1)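 TR-FRET readout: streptavidin-d2 (40 nM in added detection mix) plus Tb-anti-pSer641 Ab (2 nM in mix). Steps were 30 min compound preincubation, kinase reaction, then EDTA stop.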

[2] = biological target: Glycogen synthase kinase-3 beta (Homo sapiens, UniProt P49841); assay: TR-FRET Assay
Summary of the method: as §1

Glycogen synthase kinase-3 beta, sequence (P49841 whole entry): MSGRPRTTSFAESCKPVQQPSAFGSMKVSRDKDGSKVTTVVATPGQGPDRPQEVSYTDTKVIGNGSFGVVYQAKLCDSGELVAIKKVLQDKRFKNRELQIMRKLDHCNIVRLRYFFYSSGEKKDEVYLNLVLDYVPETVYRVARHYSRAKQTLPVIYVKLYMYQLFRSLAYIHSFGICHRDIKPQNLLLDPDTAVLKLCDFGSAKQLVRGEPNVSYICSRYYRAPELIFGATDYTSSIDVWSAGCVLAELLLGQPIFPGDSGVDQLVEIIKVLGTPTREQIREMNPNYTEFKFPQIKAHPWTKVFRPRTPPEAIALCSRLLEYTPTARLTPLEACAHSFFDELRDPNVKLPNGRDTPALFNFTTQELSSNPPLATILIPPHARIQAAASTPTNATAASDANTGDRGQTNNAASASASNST
Glycogen synthase kinase-3 alpha, sequence (P49840 whole entry): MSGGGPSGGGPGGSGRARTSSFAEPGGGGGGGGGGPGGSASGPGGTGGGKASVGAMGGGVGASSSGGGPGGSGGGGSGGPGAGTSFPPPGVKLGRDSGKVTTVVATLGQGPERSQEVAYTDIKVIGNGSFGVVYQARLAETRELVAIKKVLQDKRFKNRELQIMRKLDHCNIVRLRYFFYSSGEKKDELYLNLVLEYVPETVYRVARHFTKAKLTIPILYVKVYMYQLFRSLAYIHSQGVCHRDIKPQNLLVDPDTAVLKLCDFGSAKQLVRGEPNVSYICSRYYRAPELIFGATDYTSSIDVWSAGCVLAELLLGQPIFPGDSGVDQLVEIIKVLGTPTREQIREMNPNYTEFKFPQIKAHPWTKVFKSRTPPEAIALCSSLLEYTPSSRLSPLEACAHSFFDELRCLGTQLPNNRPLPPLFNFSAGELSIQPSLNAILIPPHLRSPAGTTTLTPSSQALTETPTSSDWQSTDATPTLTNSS

| IC50 [1] | IC50 [2] | Structure (SMILES) |
| --- | --- | --- |
| < 100 nM | 100 to 1000 nM | CC1(C)CC(=O)C2=C(NC3=C(CN=N3)[C@]23CC[C@@H](C(F)(F)F)CC3)C1F (stereo partly specified) [US20250313563, Compound 917135] |
| < 100 nM | 100 to 1000 nM | CC1(C)CC(=O)C2=C(NC3=C(CN=N3)[C@]23CC[C@H](C(F)(F)F)CC3)C1F (stereo partly specified) [US20250313563, Compound 917136] |
| < 100 nM | < 100 nM | CC1(C)CC(=O)C2=C(C1)NC1N=NC=C1C21CCCN(S(=O)(=O)C2CC2)CC1 (stereo unspecified) [US20250313563, Compound 917137] |
| < 100 nM and 100 to 1000 nM | < 100 nM and 100 to 1000 nM | CC1(C)CC(=O)C2=C(C1)NC1=C(CN=N1)C21CN(S(=O)(=O)C2CCCC2)C1 [US20250313563, Compound 917139] |
| < 100 nM | < 100 nM | COc1ccc(S(=O)(=O)N2CCC3(CC2)C2=C(N=NC2)NC2=C3C(=O)CC(C)(C)C2)cc1 [US20250313563, Compound 917143] |
| < 100 nM | < 100 nM | CC1(C)CC(=O)C2=C(C1)NC1=C(CN=N1)C21CN(S(=O)(=O)c2ccc(F)cc2)C1 [US20250313563, Compound 917144] |
| 1000 to 5000 nM | 1000 to 5000 nM | CC1(C)CC(=O)C2=C(C1)NC1N=NC=C1C21CCCN(c2ccncn2)CC1 (stereo unspecified) [US20250313563, Compound 917145] |
| < 100 nM | < 100 nM | CCC1(c2cccc(N(C)c3ccnc(F)c3)c2)C2=CN=NC2NC2=C1C(=O)CC(C)(C)C2 (stereo unspecified) [US20250313563, Compound 917146] |
| 1000 to 5000 nM | > 5000 nM | CCC1(c2cccc(N3CCc4ccncc4C3)c2)C2=CN=NC2NC2=C1C(=O)CC(C)(C)C2 (stereo unspecified) [US20250313563, Compound 917148] |
| < 100 nM | 100 to 1000 nM | CCC1(c2cccc(N(C)c3ccc(F)nc3)c2)C2=CN=NC2NC2=C1C(=O)CC(C)(C)C2 (stereo unspecified) [US20250313563, Compound 917152] |
| < 100 nM | 100 to 1000 nM | CCC1(c2cccc(C(F)(F)F)c2)C2=C(N=NC2)NC2=C1C(=O)N(Cc1ccccc1)C2 (stereo unspecified) [US20250313563, Compound 917159] |
| < 100 nM | < 100 nM | C[C@@H]1C[C@]2(CCN1S(=O)(=O)c1ccn(C)n1)C1=C(N=NC1)NC1=C2C(=O)CC(C)(C)C1 [US20250313563, Compound 917161] |
| < 100 nM | 100 to 1000 nM | CCC1(c2cccc(C(F)(F)F)c2)C2=C(N=NC2)NC2=C1C(=O)N(Cc1ccccc1)C2C (stereo unspecified) [US20250313563, Compound 917162] |
| < 100 nM | 100 to 1000 nM | CC[C@]1(c2cccc(N3CCCC[C@H]3C)c2)C2=CN=NC2NC2=C1C(=O)CC(C)(C)C2 (stereo partly specified) [US20250313563, Compound 917209] |
| > 5000 nM | > 5000 nM | CC[C@@]1(c2cccc(N3CCCC[C@H]3C)c2)C2=CN=NC2NC2=C1C(=O)CC(C)(C)C2 (stereo partly specified) [US20250313563, Compound 917210] |
| < 100 nM | 100 to 1000 nM | CCC1(c2cccc(C(F)(F)F)c2)C2=CN=NC2NC2=C1C(=O)N(c1ccccc1)CC2 (stereo unspecified) [US20250313563, Compound 917211] |

| IC50 [1] | IC50 [2] | Structure (SMILES) |
| --- | --- | --- |
| < 100 nM | 100 to 1000 nM | CCC1(c2cccc(Oc3cncnc3)c2)C2=CN=NC2NC2=C1C(=O)CC(C)(C)C2 (stereo unspecified) [US20250313563, Compound 917212] |
| 100 to 1000 nM | 100 to 1000 nM | CC1(C)CC(=O)C2=C(C1)NC1=C(CN=N1)C21Cc2ccccc21 (stereo unspecified) [US20250313563, Compound 917226] |
| < 100 nM | 100 to 1000 nM | CC[C@]1(c2cccc(C(F)(F)F)c2)C2=CN=NC2NC2=C1C(=O)N(C)CC2 (stereo partly specified) [US20250313563, Compound 917282] |
| 100 to 1000 nM | 1000 to 5000 nM | CCC1(c2cccc(C(F)(F)F)c2)C2=CN=NC2NC2=C1C(=O)NC(c1ccccc1)C2 (stereo unspecified) [US20250313563, Compound 917284] |
| < 100 nM | < 100 nM and 100 to 1000 nM | CC[C@]1(c2cccc(-c3ccnc(C)c3)c2)C2=C(CC(C)(C)CC2=O)NC2N=NC(C(F)(F)F)=C21 (stereo partly specified) [US20250313563, Compound 917291] |
| < 100 nM | < 100 nM | CC[C@]1(c2cccc(-c3ccncc3)c2)C2=C(CC(C)(C)CC2=O)NC2N=NC(C(F)(F)F)=C21 (stereo partly specified) [US20250313563, Compound 917293] |
| 100 to 1000 nM | 1000 to 5000 nM | CCC1(c2cccc(C(F)(F)F)c2)C2=C(N=NC2)NC2=C1C(=O)N(C)C2 (stereo unspecified) [US20250313563, Compound 917294] |
| 100 to 1000 nM | 1000 to 5000 nM | CCC1(c2cccc(C(F)(F)F)c2)C2=C(N=NC2)NC2=C1C(=O)NC2C (stereo unspecified) [US20250313563, Compound 917295] |
| < 100 nM | 100 to 1000 nM | CC[C@@]1(c2cccc(C(F)(F)F)c2)C2=C(N=NC2)NC2=C1C(=O)N(C)C2(C)C [US20250313563, Compound 918252] |
| < 100 nM | < 100 nM | CCC1(c2cccc(S(=O)(=O)CCOC)c2)C2=CN=NC2NC2=C1C(=O)CC(C)(C)C2 (stereo unspecified) [US20250313563, Compound 918271] |
| 100 to 1000 nM | 100 to 1000 nM | CCC1(c2cccc(N(C)c3ccc(C)nc3)c2)C2=CN=NC2NC2=C1C(=O)CC(C)(C)C2 (stereo unspecified) [US20250313563, Compound 918272] |
| < 100 nM | 100 to 1000 nM | CCC1(c2cccc(N(C)c3cccc(F)n3)c2)C2=CN=NC2NC2=C1C(=O)CC(C)(C)C2 (stereo unspecified) [US20250313563, Compound 918274] |
| < 100 nM | < 100 nM | CC1(C)CC(=O)C2=C(C1)NC1=C(CN=N1)C21CN(S(=O)(=O)C2CCCCC2)C1 [US20250313563, Compound 918275] |
| < 100 nM | < 100 nM | COc1cccc(S(=O)(=O)N2CC3(C2)C2=C(N=NC2)NC2=C3C(=O)CC(C)(C)C2)c1 [US20250313563, Compound 918276] |
| < 100 nM | < 100 nM | CC1(C)CC(=O)C2=C(C1)NC1=C(CN=N1)C21CN(S(=O)(=O)c2cccc(F)c2)C1 [US20250313563, Compound 918278] |

Continued, compound first:

| Structure (SMILES) | IC50 [1] | IC50 [2] |
| --- | --- | --- |
| CCCS(=O)(=O)c1cccc(C2(CC)C3=CN=NC3NC3=C2C(=O)CC(C)(C)C3)c1 (stereo unspecified) [US20250313563, Compound 917131] | < 100 nM | < 100 nM |
| CCC1(c2cccc(-c3cc(C)ncc3F)c2)C2=CN=NC2NC2=C1C(=O)CC(C)(C)C2 (stereo unspecified) [US20250313563, Compound 917132] | < 100 nM | < 100 nM |
| CC1(C)CC2=C(C(=O)C1F)[C@]1(CC[C@H](C(F)(F)F)CC1)C1=C(N=NC1)N2 (stereo partly specified) [US20250313563, Compound 917133] | < 100 nM | < 100 nM |
| CC1(C)CC2=C(C(=O)C1F)[C@]1(CC[C@@H](C(F)(F)F)CC1)C1=CN=NC1N2 (stereo partly specified) [US20250313563, Compound 917134] | < 100 nM | 100 to 1000 nM |
| Cn1ccc(S(=O)(=O)N2CCCC3(CC2)C2=CN=NC2NC2=C3C(=O)CC(C)(C)C2)n1 (stereo unspecified) [US20250313563, Compound 917138] | < 100 nM | < 100 nM |
| COc1cccc(S(=O)(=O)N2CCCC3(CC2)C2=CN=NC2NC2=C3C(=O)CC(C)(C)C2)c1 (stereo unspecified) [US20250313563, Compound 917140] | < 100 nM | 100 to 1000 nM |
| COc1ccc(S(=O)(=O)N2CCCC3(CC2)C2=CN=NC2NC2=C3C(=O)CC(C)(C)C2)cc1 (stereo unspecified) [US20250313563, Compound 917141] | < 100 nM | 100 to 1000 nM |
| COc1ccccc1S(=O)(=O)N1CCCC2(CC1)C1=CN=NC1NC1=C2C(=O)CC(C)(C)C1 (stereo unspecified) [US20250313563, Compound 917142] | < 100 nM | 100 to 1000 nM |
| CCc1cc(N(C)c2cccc(C3(CC)C4=CN=NC4NC4=C3C(=O)CC(C)(C)C4)c2)ccn1 (stereo unspecified) [US20250313563, Compound 917147] | < 100 nM | 100 to 1000 nM |
| CCC1(c2cccc(N(C)c3ccnc(C)c3)c2)C2=CN=NC2NC2=C1C(=O)CC(C)(C)C2 (stereo unspecified) [US20250313563, Compound 917149] | 100 to 1000 nM | 1000 to 5000 nM |
| CC[C@]1(c2cccc(C(F)(F)F)c2)C2=C(N=NC2)NC2=C1C(=O)NC2 [US20250313563, Compound 917157] | > 5000 nM | > 5000 nM |
| CC[C@@]1(c2cccc(C(F)(F)F)c2)C2=C(N=NC2)NC2=C1C(=O)NC2 [US20250313563, Compound 917158] | 100 to 1000 nM | 1000 to 5000 nM |
| C[C@@H]1C[C@@]2(CCN1S(=O)(=O)c1ccn(C)n1)C1=C(N=NC1)NC1=C2C(=O)CC(C)(C)C1 [US20250313563, Compound 917160] | 100 to 1000 nM | 100 to 1000 nM |
| CC1(C)CC(=O)C2=C(C1)NC1=C(CN=N1)C21COC2(CN(C(=O)c3ccccc3)C2)C1 (stereo unspecified) [US20250313563, Compound 917231] | < 100 nM | < 100 nM |
| CC1(C)CC(=O)C2=C(C1)NC1=C(CN=N1)C21COC2(CN(C(=O)C3CCCC3)C2)C1 (stereo unspecified) [US20250313563, Compound 917232] | < 100 nM | < 100 nM |
| CC[C@@]1(c2cccc(C(F)(F)F)c2)C2=CN=NC2NC2=C1C(=O)N(C)CC2 (stereo partly specified) [US20250313563, Compound 917283] | > 5000 nM | > 5000 nM |
| CC[C@@]1(c2cccc(-c3ccnc(C)c3)c2)C2=C(CC(C)(C)CC2=O)NC2N=NC(C(F)(F)F)=C21 (stereo partly specified) [US20250313563, Compound 917289] | 100 to 1000 nM | 1000 to 5000 nM |
| CC[C@@]1(c2cccc(-c3ccncc3)c2)C2=C(CC(C)(C)CC2=O)NC2N=NC(C(F)(F)F)=C21 (stereo partly specified) [US20250313563, Compound 917292] | 100 to 1000 nM | 100 to 1000 nM |
| CC[C@]1(c2cccc(C(F)(F)F)c2)C2=C(N=NC2)NC2=C1C(=O)N(C)C2(C)C [US20250313563, Compound 918251] | > 5000 nM | > 5000 nM |
| COC(=O)C1CCC2(CC1)C1=C(N=NC1)NC1=C2C(=O)CC(C)(C)C1 (stereo unspecified) [US20250313563, Compound 918270] | 100 to 1000 nM | 100 to 1000 nM |
| CCC1(c2cccc(S(=O)(=O)C3CCCCC3)c2)C2=CN=NC2NC2=C1C(=O)CC(C)(C)C2 (stereo unspecified) [US20250313563, Compound 918273] | < 100 nM | < 100 nM |
| CCC1(c2cccc(N3CCOc4ncccc43)c2)C2=CN=NC2NC2=C1C(=O)CC(C)(C)C2 (stereo unspecified) [US20250313563, Compound 918279] | < 100 nM | < 100 nM |
